What all share (assay): Kinase binding assay (kinase-tagged T7 phage, qPCR), Kd
(In general: In qPCR the cycle at which signal appears reflects the starting amount.)

The target in experiment [1] is T1, FGFR1 (Homo sapiens, UniProt P11362).
T1 construct: made in house; host or cells: E. coli derived from BL21, infected with T7 phage
Conditions: read-out: FGFR1 (Kd nM). As to the method: (§1) Kinase-tagged T7 phage strains were prepared in an E. coli host derived from the BL21 strain. E. coli were grown to log-phase and infected with T7 phage and incubated with shaking at 32° C. until lysis. The lysates were centrifuged and filtered to remove cell debris. […] The liganded beads were blocked with excess biotin and washed with blocking buffer SeaBlock (Pierce), 1% BSA, 0.05% Tween 20, 1 mM DTT to remove unbound ligand and to reduce non-specific binding.
(§2) Kds were determined using an 11-point 3-fold compound dilution series with three DMSO control points. […] The compounds were then diluted directly into the assays such that the final concentration of DMSO was 0.9%. All reactions performed in polypropylene 384-well plate. Each was a final volume of 0.02 ml. […] The kinase concentration in the eluates was measured by qPCR.
(§3) Binding constants were calculated with a standard dose-response curve using the Hill equation: […]
(§4) The Hill Slope was set to −1. Curves were fitted using a non-linear least square fit with the Levenberg-Marquardt algorithm.

The target in experiment [2] is T2, FGFR2 (Homo sapiens, UniProt P21802).
T2 construct: made in house; host or cells: E. coli derived from BL21, infected with T7 phage
T2 sequence (P21802 22-821): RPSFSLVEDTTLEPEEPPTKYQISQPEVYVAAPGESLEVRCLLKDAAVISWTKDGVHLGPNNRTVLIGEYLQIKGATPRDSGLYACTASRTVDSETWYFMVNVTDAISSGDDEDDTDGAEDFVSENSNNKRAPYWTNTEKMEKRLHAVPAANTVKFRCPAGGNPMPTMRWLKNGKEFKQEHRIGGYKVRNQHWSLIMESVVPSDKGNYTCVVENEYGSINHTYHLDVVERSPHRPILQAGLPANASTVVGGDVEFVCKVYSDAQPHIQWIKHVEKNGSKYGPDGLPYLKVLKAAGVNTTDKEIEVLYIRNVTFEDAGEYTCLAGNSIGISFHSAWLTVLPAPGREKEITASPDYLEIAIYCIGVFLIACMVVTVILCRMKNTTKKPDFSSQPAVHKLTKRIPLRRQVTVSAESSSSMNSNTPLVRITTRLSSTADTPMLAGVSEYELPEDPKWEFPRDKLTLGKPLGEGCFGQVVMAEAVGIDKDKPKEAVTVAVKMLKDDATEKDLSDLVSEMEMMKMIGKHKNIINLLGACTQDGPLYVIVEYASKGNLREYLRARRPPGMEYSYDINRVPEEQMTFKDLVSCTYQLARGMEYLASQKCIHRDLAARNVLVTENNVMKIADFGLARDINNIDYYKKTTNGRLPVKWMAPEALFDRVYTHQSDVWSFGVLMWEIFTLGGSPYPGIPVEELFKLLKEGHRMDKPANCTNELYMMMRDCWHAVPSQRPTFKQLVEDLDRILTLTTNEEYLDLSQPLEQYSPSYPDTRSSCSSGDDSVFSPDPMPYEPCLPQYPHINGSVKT
To be noted: read-out: FGFR2 (Kd nM). The procedure: as §1, §2, §3, §4

Experiment [3] has as its target T3, FGFR3 (Homo sapiens, UniProt P22607).
T3 construct: made in house; host or cells: E. coli derived from BL21, infected with T7 phage
To be noted: read-out: FGFR3 (Kd nM). As to the method: (§5) Kinase-tagged T7 phage strains were prepared in an E. coli host derived from the BL21 strain. E. coli were grown to log-phase and infected with T7 phage and incubated with shaking at 32° C. until lysis. The lysates were centrifuged and filtered to remove cell debris. Streptavidin-coated magnetic beads were treated with biotinylated small molecule ligands for 30 minutes at room temperature to generate affinity resins for kinase assays. The liganded beads were blocked with excess biotin and washed with blocking buffer SeaBlock (Pierce), 1% BSA, 0.05% Tween 20, 1 mM DTT to remove unbound ligand and to reduce non-specific binding. Binding reactions were assembled by combining kinases, liganded affinity beads, and test compounds in 1× binding buffer (20% SeaBlock, 0.17×PBS, 0.05% Tween 20, 6 mM DTT).
(§6) Test compounds were prepared as 111X stocks in 100% DMSO. Kds were determined using an 11-point 3-fold compound dilution series with three DMSO control points. All compounds for Kd measurements are distributed by acoustic transfer (non-contact dispensing) in 100% DMSO. The compounds were then diluted directly into the assays such that the final concentration of DMSO was 0.9%. All reactions performed in polypropylene 384-well plate. Each was a final volume of 0.02 ml. The assay plates were incubated at room temperature with shaking for 1 hour and the affinity beads were washed with wash buffer (1×PBS, 0.05% Tween 20). The beads were then re-suspended in elution buffer (1×PBS, 0.05% Tween 20, 0.5 μM non-biotinylated affinity ligand) and incubated at room temperature with shaking for 30 minutes. The kinase concentration in the eluates was measured by qPCR.
as §3, §4

In experiment [4] the target is T4, FGFR4 (Homo sapiens, UniProt P22455).
T4 construct: made in house; host or cells: E. coli derived from BL21, infected with T7 phage
T4 sequence (P22455 22-802): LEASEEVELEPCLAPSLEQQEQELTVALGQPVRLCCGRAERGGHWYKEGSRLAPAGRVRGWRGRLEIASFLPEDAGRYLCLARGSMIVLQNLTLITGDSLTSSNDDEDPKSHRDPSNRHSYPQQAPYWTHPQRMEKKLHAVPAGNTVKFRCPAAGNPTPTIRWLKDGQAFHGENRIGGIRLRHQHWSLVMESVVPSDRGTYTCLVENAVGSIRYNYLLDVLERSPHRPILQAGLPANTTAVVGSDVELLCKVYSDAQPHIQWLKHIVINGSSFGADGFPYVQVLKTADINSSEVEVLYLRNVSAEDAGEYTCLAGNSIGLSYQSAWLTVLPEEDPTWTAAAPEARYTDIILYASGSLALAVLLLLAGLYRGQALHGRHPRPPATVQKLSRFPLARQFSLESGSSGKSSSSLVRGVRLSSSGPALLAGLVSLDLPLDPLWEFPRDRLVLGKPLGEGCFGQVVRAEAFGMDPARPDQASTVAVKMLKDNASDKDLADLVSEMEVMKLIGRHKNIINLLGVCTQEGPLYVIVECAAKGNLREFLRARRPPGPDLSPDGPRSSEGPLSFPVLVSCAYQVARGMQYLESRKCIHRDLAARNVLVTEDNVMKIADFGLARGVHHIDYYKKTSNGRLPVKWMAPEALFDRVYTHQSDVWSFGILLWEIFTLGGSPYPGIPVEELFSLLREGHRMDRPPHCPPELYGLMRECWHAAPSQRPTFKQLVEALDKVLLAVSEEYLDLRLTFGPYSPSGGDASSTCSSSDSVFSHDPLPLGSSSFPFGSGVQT
Conditions: read-out: FGFR4 (Kd nM). As to the method: as §5, §6, §3, §4

T3 sequence (P22607 23-806): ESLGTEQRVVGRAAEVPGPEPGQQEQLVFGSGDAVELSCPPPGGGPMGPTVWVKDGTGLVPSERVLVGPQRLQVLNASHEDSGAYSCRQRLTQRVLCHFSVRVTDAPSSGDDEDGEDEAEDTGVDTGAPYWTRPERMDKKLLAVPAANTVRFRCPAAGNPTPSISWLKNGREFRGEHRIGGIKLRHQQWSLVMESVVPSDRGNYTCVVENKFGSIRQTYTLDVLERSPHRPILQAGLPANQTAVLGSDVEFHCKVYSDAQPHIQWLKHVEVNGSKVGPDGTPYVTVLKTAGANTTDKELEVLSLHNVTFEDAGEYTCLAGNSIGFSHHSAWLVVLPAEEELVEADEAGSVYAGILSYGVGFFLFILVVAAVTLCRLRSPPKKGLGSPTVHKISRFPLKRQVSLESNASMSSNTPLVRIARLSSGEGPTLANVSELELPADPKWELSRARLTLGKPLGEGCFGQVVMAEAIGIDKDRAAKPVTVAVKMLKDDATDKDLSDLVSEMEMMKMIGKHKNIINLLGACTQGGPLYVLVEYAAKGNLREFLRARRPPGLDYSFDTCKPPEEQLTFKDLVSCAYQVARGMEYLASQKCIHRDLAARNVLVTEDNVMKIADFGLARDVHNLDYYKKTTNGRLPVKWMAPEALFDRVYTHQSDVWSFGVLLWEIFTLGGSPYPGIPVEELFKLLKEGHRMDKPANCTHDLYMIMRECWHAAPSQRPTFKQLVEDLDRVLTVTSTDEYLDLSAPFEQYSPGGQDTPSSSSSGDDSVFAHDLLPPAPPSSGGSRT
T1 sequence (P11362 22-822): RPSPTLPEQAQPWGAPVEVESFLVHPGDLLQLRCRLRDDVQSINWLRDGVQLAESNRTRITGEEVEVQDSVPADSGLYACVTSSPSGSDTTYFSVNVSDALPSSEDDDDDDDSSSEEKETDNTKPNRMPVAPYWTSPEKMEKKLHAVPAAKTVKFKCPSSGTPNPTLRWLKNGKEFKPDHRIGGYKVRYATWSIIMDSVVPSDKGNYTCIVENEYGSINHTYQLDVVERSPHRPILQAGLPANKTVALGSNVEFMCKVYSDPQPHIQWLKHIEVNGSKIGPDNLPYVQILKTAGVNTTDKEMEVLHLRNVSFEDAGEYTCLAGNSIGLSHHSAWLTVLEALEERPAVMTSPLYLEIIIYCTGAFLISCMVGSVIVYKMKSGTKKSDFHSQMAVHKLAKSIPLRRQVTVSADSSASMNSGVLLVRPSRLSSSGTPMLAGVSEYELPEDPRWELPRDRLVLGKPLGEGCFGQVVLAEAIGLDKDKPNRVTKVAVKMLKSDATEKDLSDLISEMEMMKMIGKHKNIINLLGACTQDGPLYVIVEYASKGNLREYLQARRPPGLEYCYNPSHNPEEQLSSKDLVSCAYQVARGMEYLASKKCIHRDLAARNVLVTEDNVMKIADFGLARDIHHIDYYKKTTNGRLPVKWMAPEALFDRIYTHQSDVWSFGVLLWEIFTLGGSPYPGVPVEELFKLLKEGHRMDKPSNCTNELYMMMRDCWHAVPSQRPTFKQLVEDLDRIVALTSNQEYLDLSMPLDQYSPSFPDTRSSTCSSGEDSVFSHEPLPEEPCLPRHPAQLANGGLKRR

`COc1ncc(-c2n[nH]c3ccc(O[C@H](C)c4c(Cl)cncc4Cl)cc23)cc1NCc1ccnc(C)c1` [Example 6, (R)-5-(5-(1-(3,5-Dichloropyridin-4-yl)ethoxy)-1H-indazol-3-yl)-2-methoxy-N-((2-methylpyridin-4-yl)methyl)pyridin-3-amine]: the Kd was more than 1000 nM in experiment [1], more than 1000 nM in experiment [2], more than 1000 nM in experiment [3] and 250 to 1000 nM in experiment [4].
On to `Cc1cc(-c2n[nH]c3ccc(O[C@H](C)c4c(Cl)cnc(C)c4Cl)cc23)cnc1O[C@H]1CCOC1` [Example 154, 5-[(1R)-1-(3,5-dichloro-2-methyl-4-pyridyl)ethoxy]-3-[5-methyl-6-[(3S)-tetrahydrofuran-3-yl]oxy-3-pyridyl]-1H-indazole], for which the Kd in experiment [1] lay in the range of 250 to 1000 nM; in experiment [2] it was 250 to 1000 nM; in experiment [3], 0.1 to 100 nM; in experiment [4], 0.1 to 100 nM.
`COc1cc(OC(F)(F)F)cc(-c2n[nH]c3ccc(O[C@H](C)c4c(C)cnnc4C)cc23)c1` [Example 63, 5-[(1R)-1-(3,5-dimethylpyridazin-4-yl)ethoxy]-3-[3-methoxy-5-(trifluoromethoxy)phenyl]-1H-indazole]: the Kd in experiment [1] was more than 1000 nM; in experiment [2], more than 1000 nM; in experiment [3], 250 to 1000 nM; in experiment [4], 0.1 to 100 nM.
On to `CC(C)N1CCOc2ncc(-c3n[nH]c4ccc(O[C@H](C)c5c(Cl)cncc5Cl)cc34)cc21` [Example 141, (R)-7-(5-(1-(3,5-dichloropyridin-4-yl)ethoxy)-1H-indazol-3-yl)-1-isopropyl-2,3-dihydro-1H-pyrido[2,3-b][1,4]oxazine], for which the Kd is more than 1000 nM in experiment [1], more than 1000 nM in experiment [2], more than 1000 nM in experiment [3] and 0.1 to 100 nM in experiment [4].
`C[C@@H](Oc1ccc2[nH]nc(-c3ccc(NC(=O)N4CCN(C)CC4)nc3)c2c1)c1c(Cl)cncc1Cl` [Example 19, N-[5-[5-[(1R)-1-(3,5-dichloro-4-pyridyl)ethoxy]-1H-indazol-3-yl]-2-pyridyl]-4-methyl-piperazine-1-carboxamide]: the Kd in experiment [1], in experiment [2], in experiment [3] and in experiment [4] was 0.1 to 100 nM throughout.
As to `COc1c(C)cc(-c2n[nH]c3ccc(O[C@H](C)c4c(C)cnnc4C)cc23)cc1C#N` [Example 80, 5-[5-[(1R)-1-(3,5-dimethylpyridazin-4-yl)ethoxy]-1H-indazol-3-yl]-2-methoxy-3-methyl-benzonitrile], the Kd was in the range of 100 to 250 nM in experiment [1], 0.1 to 100 nM in experiment [2], 0.1 to 100 nM in experiment [3] and 0.1 to 100 nM in experiment [4].
As for `COc1cc(OC)cc(-c2n[nH]c3ccc(O[C@@H](C)c4c(C)cnnc4C)cc23)c1` [Example 58, 3-(3,5-dimethoxyphenyl)-5-[(1S)-1-(3,5-dimethylpyridazin-4-yl)ethoxy]-1H-indazole], the Kd in experiment [1], in experiment [2], in experiment [3] and in experiment [4] was 0.1 to 100 nM throughout.
Consider `Cc1cnnc(C)c1[C@@H](C)Oc1ccc2[nH]nc(-c3cc(C#N)cc(OC(C)C)c3)c2c1` [Example 57, 3-[5-[(1R)-1-(3,5-dimethylpyridazin-4-yl)ethoxy]-1H-indazol-3-yl]-5-isopropoxy-benzonitrile], for which the Kd in experiment [1] was 250 to 1000 nM; in experiment [2], more than 1000 nM; in experiment [3] it was 250 to 1000 nM; in experiment [4], 0.1 to 100 nM.
As to `C[C@@H](Oc1cc2c(-c3cnc4c(c3)N(S(C)(=O)=O)CCO4)n[nH]c2cc1Cl)c1c(Cl)cncc1Cl` [Example 145, 7-[6-chloro-5-[(1R)-1-(3,5-dichloro-4-pyridyl)ethoxy]-1H-indazol-3-yl]-1-methylsulfonyl-2,3-dihydropyrido[2,3-b][1,4]oxazine], the Kd is more than 1000 nM in experiment [1], more than 1000 nM in experiment [2], more than 1000 nM in experiment [3] and 0.1 to 100 nM in experiment [4].
For the molecule `C[C@@H](Oc1ccc2[nH]nc(-c3ccc(NC(=O)N4CCC(O)C4)nc3)c2c1)c1c(Cl)cncc1Cl` (stereo partly drawn) [Example 24, N-[5-[5-[(1R)-1-(3,5-dichloro-4-pyridyl)ethoxy]-1H-indazol-3-yl]-2-pyridyl]-3-hydroxy-pyrrolidine-1-carboxamide], the Kd in experiment [1], in experiment [2], in experiment [3] and in experiment [4] was 0.1 to 100 nM in each case.
For the molecule `Cc1cnnc(C)c1[C@@H](C)Oc1ccc2[nH]nc(-c3cc(C#N)cc(OCC4CC4)c3)c2c1` [Example 78, 3-(cyclopropylmethoxy)-5-[5-[(1R)-1-(3,5-dimethylpyridazin-4-yl)ethoxy]-1H-indazol-3-yl]benzonitrile], the Kd is more than 1000 nM in experiment [1], more than 1000 nM in experiment [2], 250 to 1000 nM in experiment [3] and 0.1 to 100 nM in experiment [4].
For `COc1cc(N)cc(-c2n[nH]c3ccc(O[C@H](C)c4c(Cl)cncc4Cl)cc23)c1` [Example 44, 3-[5-[(1R)-1-(3,5-dichloro-4-pyridyl)ethoxy]-1H-indazol-3-yl]-5-methoxy-aniline], the equilibrium dissociation constant (Kd) was more than 1000 nM in experiment [1], more than 1000 nM in experiment [2], 250 to 1000 nM in experiment [3] and 0.1 to 100 nM in experiment [4].
`Cc1cnnc(C)c1[C@@H](C)Oc1ccc2[nH]nc(-c3cc(C#N)cc(N4CCOCC4)c3)c2c1` [Example 64, 3-[5-[(1R)-1-(3,5-Dimethylpyridazin-4-yl)ethoxy]-1H-indazol-3-yl]-5-morpholino-benzonitrile]: the Kd was more than 1000 nM in experiment [1], more than 1000 nM in experiment [2], more than 1000 nM in experiment [3] and 100 to 250 nM in experiment [4].
In the case of `CC(C)OC(=O)Nc1ccc(-c2n[nH]c3ccc(O[C@H](C)c4c(Cl)cncc4Cl)cc23)cn1` [Example 27, isopropyl N-[5-[5-[(1R)-1-(3,5-dichloro-4-pyridyl)ethoxy]-1H-indazol-3-yl]-2-pyridyl]carbamate], the Kd fell in the range of 100 to 250 nM in experiment [1], 250 to 1000 nM in experiment [2], 0.1 to 100 nM in experiment [3] and 0.1 to 100 nM in experiment [4].
Turning to `C[C@@H](Oc1cc2c(-c3cnc(O[C@@H]4CCOC4)c(C#N)c3)n[nH]c2cc1F)c1c(Cl)cncc1Cl` [Example 138, 5-(5-((R)-1-(3,5-dichloropyridin-4-yl)ethoxy)-6-fluoro-1H-indazol-3-yl)-2-(((R)-tetrahydrofuran-3-yl)oxy)nicotinonitrile], the Kd in experiment [1] fell in the range of 100 to 250 nM; in experiment [2], 250 to 1000 nM; in experiment [3] it was 0.1 to 100 nM; in experiment [4], 0.1 to 100 nM.
For `COc1cc(NCc2ccccn2)cc(-c2n[nH]c3ccc(O[C@H](C)c4c(Cl)cncc4Cl)cc23)c1` [Example 46, 3-[5-[(1R)-1-(3,5-dichloro-4-pyridyl)ethoxy]-1H-indazol-3-yl]-5-methoxy-N-(2-pyridyl-methyl)aniline], the Kd in experiment [1] is more than 1000 nM; in experiment [2], more than 1000 nM; in experiment [3], more than 1000 nM; in experiment [4], 0.1 to 100 nM.
Take `CCOc1cc(C#N)cc(-c2n[nH]c3ccc(O[C@H](C)c4c(C)cnnc4C)cc23)c1` [Example 56, 3-[5-[(1R)-1-(3,5-dimethylpyridazin-4-yl)ethoxy]-1H-indazol-3-yl]-5-ethoxy-benzonitrile]: the Kd in experiment [1] lay within 250 to 1000 nM; in experiment [2], 250 to 1000 nM; in experiment [3], 100 to 250 nM; in experiment [4], 0.1 to 100 nM.
In the case of `Cc1cnnc(C)c1[C@@H](C)Oc1ccc2[nH]nc(-c3cc(C#N)cc(C4CCCC4)c3)c2c1` [Example 86, 3-cyclopentyl-5-[5-[(1R)-1-(3,5-dimethylpyridazin-4-yl)ethoxy]-1H-indazol-3-yl]benzonitrile], the Kd in experiment [1] is more than 1000 nM; in experiment [2], more than 1000 nM; in experiment [3] it was more than 1000 nM; in experiment [4], 250 to 1000 nM.
As for `Cc1cnnc(C)c1[C@H](C)Oc1ccc2[nH]nc(-c3cc(C#N)cc(N4CCN(C)CC4)c3)c2c1` [Example 66, 3-[5-[(1S)-1-(3,5-dimethylpyridazin-4-yl)ethoxy]-1H-indazol-3-yl]-5-(4-methylpiperazin-1-yl)benzonitrile], the Kd is more than 1000 nM in experiment [1], more than 1000 nM in experiment [2], more than 1000 nM in experiment [3] and 250 to 1000 nM in experiment [4].

For orientation: Kd means the equilibrium constant for the complex coming apart.

The record behind these values is patent publication US20240316022A1 (TYRA BIOSCIENCES, INC., priority 2021, published 2024).
